According to patent publication US8048927B2 (Besins Healthcare Luxembourg, priority 2004, dated 2011):

Key:
[1] = system: estrogen receptors; conditions: in vitro; cited from earlier work
[2] = biological target: T1, estrone sulphatase (Homo sapiens, UniProt P08842); conditions: mammary cancer cell lines; cited from earlier work
T1 construct: estrone sulphatase activity in mammary cancer cell lines; endogenous in cells
T1 sequence (P08842 22-583): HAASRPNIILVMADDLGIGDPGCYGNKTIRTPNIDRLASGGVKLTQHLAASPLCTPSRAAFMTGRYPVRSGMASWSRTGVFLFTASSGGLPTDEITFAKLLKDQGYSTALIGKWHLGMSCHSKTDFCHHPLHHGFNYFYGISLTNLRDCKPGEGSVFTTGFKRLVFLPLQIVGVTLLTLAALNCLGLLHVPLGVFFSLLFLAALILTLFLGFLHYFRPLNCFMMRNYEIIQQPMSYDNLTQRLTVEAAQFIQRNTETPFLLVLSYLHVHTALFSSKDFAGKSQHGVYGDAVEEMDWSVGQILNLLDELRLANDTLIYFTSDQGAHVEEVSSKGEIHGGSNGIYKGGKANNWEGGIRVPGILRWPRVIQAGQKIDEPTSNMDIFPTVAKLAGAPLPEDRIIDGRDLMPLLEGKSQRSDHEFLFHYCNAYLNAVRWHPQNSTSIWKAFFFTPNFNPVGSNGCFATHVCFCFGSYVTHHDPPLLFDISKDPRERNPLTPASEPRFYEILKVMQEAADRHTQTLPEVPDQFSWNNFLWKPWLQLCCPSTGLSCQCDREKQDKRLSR

[3] = system: rat liver; conditions: in vivo; cited from earlier work
[4] = in vivo; cited from earlier work
[5] = pharmacokinetics of 4-hydroxy tamoxifen gel in healthy premenopausal women (Example 3); type: in vivo, human; conditions: for Plasma concentration of 4-hydroxy tamoxifen, Range: First cycle Day 1, 0 hr; for AUC0-24, Mean ± SD / Cav = AUC0-24/24, Mean ± SD / Cmax, Mean ± SD / tmax, Mean ± SD: last administration, day 25 of second cycle
Experimental: Each participant applied the gel daily for the duration of two menstrual cycles.
At the end of a menstrual cycle, each patient received a single dose, after which serial blood samples were collected at 0, 0.5, 1, 1.5, 2, 3, 4, 6, 12, 18, 24, 36, 48, and 72 hours.
On the first day of the following menstruation, treatment, which consisted of daily application of the gel over two menstrual cycles, began. Blood samples were collected 24 hours following the morning application of gel on days 7, 20 and 25 of the first and second cycles. On the last day of administration, day 25 of the second menstrual cycle, serial blood samples were collected prior to application and at 0.5, 1, 1.5, 2, 3, 4, 6, 12, 18, 24, 36, 48, and 72 hours after application of the gel.

For CCC(=C(c1ccc(O)cc1)c1ccc(OCCN(C)C)cc1)c1ccccc1 [4-hydroxy tamoxifen, 1-[4-(2-N-dimethylaminoethoxy)phenyl]-1-(4-hydroxyphenyl)-2-phenylbut-1-ene], the “potency versus tamoxifen, as measured by binding affinity to estrogen receptors” value [1] is listed as “more potency than tamoxifen”, the “inhibitory effect on estrone sulphatase activity” value [2] is listed as “significant inhibitory effect” and the rat liver carcinogenicity [3] is listed as “not”. The “breast tissue concentration by site of application” value [4] was “concentrated at higher amounts in breast tissue when the gel was applied directly to the breasts”, the “Plasma concentration of 4-hydroxy tamoxifen, Range” value (“Plasma concentration … Range” below) ([5]; 0.5 mg/day, gel 20 mg/100 g) was “(0-17.2) pg/mL” and the “Plasma concentration of 4-hydroxy tamoxifen, Mean ± SD” value ([5]; 0.5 mg/day, gel 20 mg/100 g, First cycle Day 7, 24 hr after application) was 0.0064 ± 0.0056 ng/mL. For the same compound, the “Plasma concentration of 4-hydroxy tamoxifen, Mean ± SD” value ([5]; 0.5 mg/day, gel 20 mg/100 g, First cycle Day 20, 24 hr after application) was 0.0136 ± 0.0079 ng/mL, the “Plasma concentration of 4-hydroxy tamoxifen, Mean ± SD” value ([5]; 0.5 mg/day, gel 20 mg/100 g, First cycle Day 25, 24 hr after application) was 0.0239 ± 0.0234 ng/mL and the “Plasma concentration of 4-hydroxy tamoxifen, Mean ± SD” value ([5]; 0.5 mg/day, gel 20 mg/100 g, Second cycle Day 7, 24 hr after application) was 0.0252 ± 0.0161 ng/mL. For the same compound, the “Plasma concentration of 4-hydroxy tamoxifen, Mean ± SD” value ([5]; 0.5 mg/day, gel 20 mg/100 g, Second cycle Day 20, 24 hr after application) was 0.0157 ± 0.014 ng/mL, the “Plasma concentration of 4-hydroxy tamoxifen, Mean ± SD” value ([5]; 0.5 mg/day, gel 20 mg/100 g, Second cycle Day 25, 0 hr (24 hours after Day 24 application, prior to final application)) was 0.0108 ± 0.0099 ng/mL and the “Plasma concentration of 4-hydroxy tamoxifen, Mean ± SD” value ([5]; 0.5 mg/day, gel 20 mg/100 g, Second cycle Day 25, 0.5 hr after application) was 0.0109 ± 0.0074 ng/mL. For the same compound, the “Plasma concentration of 4-hydroxy tamoxifen, Mean ± SD” value ([5]; 0.5 mg/day, gel 20 mg/100 g, Second cycle Day 25, 1 hr after application) was 0.0104 ± 0.0078 ng/mL, the “Plasma concentration of 4-hydroxy tamoxifen, Mean ± SD” value ([5]; 0.5 mg/day, gel 20 mg/100 g, Second cycle Day 25, 1.5 hr after application) was 0.009 ± 0.0082 ng/mL and the “Plasma concentration of 4-hydroxy tamoxifen, Mean ± SD” value ([5]; 0.5 mg/day, gel 20 mg/100 g, Second cycle Day 25, 2 hr after application) was 0.0118 ± 0.0095 ng/mL. For the same compound, the “Plasma concentration of 4-hydroxy tamoxifen, Mean ± SD” value ([5]; 0.5 mg/day, gel 20 mg/100 g, Second cycle Day 25, 3 hr after application) was 0.01 ± 0.0079 ng/mL, the “Plasma concentration of 4-hydroxy tamoxifen, Mean ± SD” value ([5]; 0.5 mg/day, gel 20 mg/100 g, Second cycle Day 25, 4 hr after application) was 0.0092 ± 0.0083 ng/mL and the “Plasma concentration of 4-hydroxy tamoxifen, Mean ± SD” value ([5]; 0.5 mg/day, gel 20 mg/100 g, Second cycle Day 25, 6 hr after application) was 0.0114 ± 0.0085 ng/mL. For the same compound, the “Plasma concentration of 4-hydroxy tamoxifen, Mean ± SD” value ([5]; 0.5 mg/day, gel 20 mg/100 g, Second cycle Day 25, 12 hr after application) was 0.011 ± 0.0097 ng/mL, the “Plasma concentration of 4-hydroxy tamoxifen, Mean ± SD” value ([5]; 0.5 mg/day, gel 20 mg/100 g, Second cycle Day 25, 18 hr after application) was 0.0097 ± 0.0088 ng/mL and the “Plasma concentration of 4-hydroxy tamoxifen, Mean ± SD” value ([5]; 0.5 mg/day, gel 20 mg/100 g, Second cycle Day 26, 24 hr after last application) was 0.0124 ± 0.0094 ng/mL. The “Plasma concentration of 4-hydroxy tamoxifen, Mean ± SD” value ([5]; 0.5 mg/day, gel 20 mg/100 g, Second cycle Day 26, 36 hr after last application) was 0.0109 ± 0.0069 ng/mL, the “Plasma concentration of 4-hydroxy tamoxifen, Mean ± SD” value ([5]; 0.5 mg/day, gel 20 mg/100 g, Second cycle Day 27, 48 hr after last application) was 0.0121 ± 0.0065 ng/mL and the “Plasma concentration of 4-hydroxy tamoxifen, Mean ± SD” value ([5]; 0.5 mg/day, gel 20 mg/100 g, Second cycle Day 28, 72 hr after last application) was 0.0099 ± 0.0071 ng/mL. For the same compound, the “Plasma concentration of 4-hydroxy tamoxifen” value ([5]; 0.5 mg/day, gel 20 mg/100 g, after the second cycle, +8 days, LOQ <5 pg/mL) was “<LOQ”, the “Plasma concentration of 4-hydroxy tamoxifen, maximum” value ([5]; 0.5 mg/day, gel 20 mg/100 g, after the second cycle, +12 days) was “(maximum 9.09) pg/mL” and the “Plasma concentration of 4-hydroxy tamoxifen” value ([5]; 0.5 mg/day, gel 20 mg/100 g, after the second cycle, +20 days) was 0 ng/mL. The “AUC0-24, Mean ± SD” value ([5]; 0.5 mg/day, gel 20 mg/100 g) was 0.2563 ± 0.2053 ng·h/mL, the “Cav = AUC0-24/24, Mean ± SD” value ([5]; 0.5 mg/day, gel 20 mg/100 g) was 0.0107 ± 0.0085 ng/mL and the “Cmax, Mean ± SD” value ([5]; 0.5 mg/day, gel 20 mg/100 g) was 0.017 ± 0.0085 ng/mL. The “tmax, Mean ± SD” value ([5]; 0.5 mg/day, gel 20 mg/100 g) was 40 ± 81 h, the “Plasma concentration … Range” value ([5]; 1 mg/day, gel 20 mg/100 g) was “(0-13.9) pg/mL” and the “Plasma concentration of 4-hydroxy tamoxifen, Mean ± SD” value ([5]; 1 mg/day, gel 20 mg/100 g, First cycle Day 7, 24 hr after application) was 0.0152 ± 0.0097 ng/mL. The “Plasma concentration of 4-hydroxy tamoxifen, Mean ± SD” value ([5]; 1 mg/day, gel 20 mg/100 g, First cycle Day 20, 24 hr after application) was 0.0173 ± 0.0095 ng/mL, the “Plasma concentration of 4-hydroxy tamoxifen, Mean ± SD” value ([5]; 1 mg/day, gel 20 mg/100 g, First cycle Day 25, 24 hr after application) was 0.0155 ± 0.0066 ng/mL and the “Plasma concentration of 4-hydroxy tamoxifen, Mean ± SD” value ([5]; 1 mg/day, gel 20 mg/100 g, Second cycle Day 7, 24 hr after application) was 0.0174 ± 0.0112 ng/mL. The “Plasma concentration of 4-hydroxy tamoxifen, Mean ± SD” value ([5]; 1 mg/day, gel 20 mg/100 g, Second cycle Day 20, 24 hr after application) was 0.0148 ± 0.0065 ng/mL, the “Plasma concentration of 4-hydroxy tamoxifen, Mean ± SD” value ([5]; 1 mg/day, gel 20 mg/100 g, Second cycle Day 25, 0 hr (24 hours after Day 24 application, prior to final application)) was 0.0157 ± 0.0171 ng/mL and the “Plasma concentration of 4-hydroxy tamoxifen, Mean ± SD” value ([5]; 1 mg/day, gel 20 mg/100 g, Second cycle Day 25, 0.5 hr after application) was 0.0135 ± 0.0091 ng/mL. The “Plasma concentration of 4-hydroxy tamoxifen, Mean ± SD” value ([5]; 1 mg/day, gel 20 mg/100 g, Second cycle Day 25, 1 hr after application) was 0.0108 ± 0.0066 ng/mL, the “Plasma concentration of 4-hydroxy tamoxifen, Mean ± SD” value ([5]; 1 mg/day, gel 20 mg/100 g, Second cycle Day 25, 1.5 hr after application) was 0.0118 ± 0.008 ng/mL and the “Plasma concentration of 4-hydroxy tamoxifen, Mean ± SD” value ([5]; 1 mg/day, gel 20 mg/100 g, Second cycle Day 25, 2 hr after application) was 0.0107 ± 0.0069 ng/mL. For the same compound, the “Plasma concentration of 4-hydroxy tamoxifen, Mean ± SD” value ([5]; 1 mg/day, gel 20 mg/100 g, Second cycle Day 25, 3 hr after application) was 0.0114 ± 0.0079 ng/mL, the “Plasma concentration of 4-hydroxy tamoxifen, Mean ± SD” value ([5]; 1 mg/day, gel 20 mg/100 g, Second cycle Day 25, 4 hr after application) was 0.0112 ± 0.0073 ng/mL and the “Plasma concentration of 4-hydroxy tamoxifen, Mean ± SD” value ([5]; 1 mg/day, gel 20 mg/100 g, Second cycle Day 25, 6 hr after application) was 0.0107 ± 0.0064 ng/mL. The “Plasma concentration of 4-hydroxy tamoxifen, Mean ± SD” value ([5]; 1 mg/day, gel 20 mg/100 g, Second cycle Day 25, 12 hr after application) was 0.0118 ± 0.0078 ng/mL, the “Plasma concentration of 4-hydroxy tamoxifen, Mean ± SD” value ([5]; 1 mg/day, gel 20 mg/100 g, Second cycle Day 25, 18 hr after application) was 0.0122 ± 0.0083 ng/mL and the “Plasma concentration of 4-hydroxy tamoxifen, Mean ± SD” value ([5]; 1 mg/day, gel 20 mg/100 g, Second cycle Day 26, 24 hr after last application) was 0.0186 ± 0.0142 ng/mL. For the same compound, the “Plasma concentration of 4-hydroxy tamoxifen, Mean ± SD” value ([5]; 1 mg/day, gel 20 mg/100 g, Second cycle Day 26, 36 hr after last application) was 0.0134 ± 0.0075 ng/mL, the “Plasma concentration of 4-hydroxy tamoxifen, Mean ± SD” value ([5]; 1 mg/day, gel 20 mg/100 g, Second cycle Day 27, 48 hr after last application) was 0.0125 ± 0.006 ng/mL and the “Plasma concentration of 4-hydroxy tamoxifen, Mean ± SD” value ([5]; 1 mg/day, gel 20 mg/100 g, Second cycle Day 28, 72 hr after last application) was 0.0099 ± 0.0058 ng/mL. The “T(1stC < LOQ), first timepoint at which the plasma concentration was below the limit of quantification, Mean ± SD” value ([5]; 1 mg/day, gel 20 mg/100 g, after last administration) was 274 ± 141 h, the “Plasma concentration of 4-hydroxy tamoxifen, Mean ± SD” value ([5]; 1 mg/day, gel 20 mg/100 g, after the second cycle, +5 days) was 0.0058 ± 0.0052 ng/mL and the “Plasma concentration of 4-hydroxy tamoxifen” value ([5]; 1 mg/day, gel 20 mg/100 g, after the second cycle, +20 days, LOQ <5 pg/mL) was “<LOQ”. The “AUC0-24, Mean ± SD” value ([5]; 1 mg/day, gel 20 mg/100 g) was 0.3009 ± 0.1908 ng·h/mL, the “Cav = AUC0-24/24, Mean ± SD” value ([5]; 1 mg/day, gel 20 mg/100 g) was 0.0125 ± 0.0079 ng/mL and the “Cmax, Mean ± SD” value ([5]; 1 mg/day, gel 20 mg/100 g) was 0.021 ± 0.004 ng/mL. For the same compound, the “tmax, Mean ± SD” value ([5]; 1 mg/day, gel 20 mg/100 g) was 24 ± 18 h, the “Plasma concentration … Range” value ([5]; 1 mg/day, gel 57 mg/100 g) was “(0-9.5) pg/mL” and the “Plasma concentration of 4-hydroxy tamoxifen, Mean ± SD” value ([5]; 1 mg/day, gel 57 mg/100 g, First cycle Day 7, 24 hr after application) was 0.0144 ± 0.0131 ng/mL. The “Plasma concentration of 4-hydroxy tamoxifen, Mean ± SD” value ([5]; 1 mg/day, gel 57 mg/100 g, First cycle Day 20, 24 hr after application) was 0.0181 ± 0.0158 ng/mL and the “Plasma concentration of 4-hydroxy tamoxifen, Mean ± SD” value ([5]; 1 mg/day, gel 57 mg/100 g, First cycle Day 25, 24 hr after application) was 0.0198 ± 0.0162 ng/mL.
